In US7799565B2, “Lipid encapsulated interfering RNA” (Protiva Biotherapeutics, Inc., priority 2004, dated 2010):

Key:
luciferase = experiment: In vitro silencing of luciferase in stably transfected Neuro2A cells; assay type: cell-based; conditions: 48 hours; for luciferase expression relative to untreated control: cationic lipid incorporated in SNALP with anti-luciferase siRNA
Experimental: In vitro Transfection: Cells were cultured in MEM (Invitrogen) containing 10% fetal bovine serum (FBS) (CanSera) and 0.25 mg/mL G418 (Invitrogen). Neuro2A-G cells (Neuro2A cells stably transfected to express luciferase [R. E. Kingston. in Current Protocols in Molecular Biology, Vol. 2, pp. 9.1.4-9.1.9, John Wiley & Sons, Inc. (1997)]) were plated at a concentration of 4×10^4 cells per well in 24-well plates and grown overnight. Cells were treated with SNALP at doses of 0.0625-1.0 μg/mL nucleic acid (AntiLuc Active or Mismatch Control) and incubated for 48 hours at 37° C. and 5% CO2. Cells were then washed with PBS and lysed with 200 μL 250 mM sodium phosphate containing 0.1% Triton X-100. The luciferase activity for each well was determined using Luciferase Reagent (Promega) and a standard luciferase protein (Roche). The luminescence for each was measured using a Berthold MicroLumatPlus LB96V plate luminometer. The resulting luciferase activity was then normalized for the amount of protein using the Micro BCA assay kit (Pierce). Luciferase knockdown relative to a control was then determined for each system.
This example describes experiments comparing expression of nucleic acids following in vitro transfection of Neuro2A cells with SNALP comprising: (1) DODAC, DODMA, or DLinDMA; (2) PEG-C-DMA; and (3) an siRNA duplex directed against luciferase encapsulated in the SNALP (i.e., siRNA comprising the following sequence: […] and targeting the DNA sequence complementary to: […]). Neuro2A cells were stably transfected with a plasmid encoding luciferase under the control of the CMV promoter (pLO55). The stably transfected cells were then transfected with SNALP comprising: 15, 20, 25, 30, 35, or 40% of DODAC, DODMA, or DLinDMA; 2% PEG-C-DMA, and an siRNA duplex directed against luciferase encapsulated in the SNALP. Luciferase protein expression was measured 48 hours after transfection with SNALP.
The ability of SNALP containing each of the four cationic lipids (i.e., DSDMA, DODMA, DLinDMA, and DLenDMA) to effect gene silencing in stably transfected Neuro2A cells was evaluated. Neuro2A cells stably transfected to express the luciferase were treated with SNALP containing anti-luciferase siRNA for 48 hours. Gene-silencing efficiency was evaluated by comparing the remaining luciferase activity in these cells to that remaining in cells treated with control SNALP containing mismatch siRNA.

[1] = 31P-NMR phase transition of cationic lipid / DPPS vesicles; assay type: physicochemical; conditions: series DSDMA, DODMA, DLinDMA, DLenDMA
Experimental: ^31P Nuclear Magnetic Resonance Spectroscopy: Multilamellar vesicles (MLV) were prepared comprising DPPS and cationic lipid at a molar ratio of 1:1. This was accomplished by drying the lipids from chloroform solution, transferring to 10 mm NMR tubes, and hydrating in 1.5 mL of 10 mM sodium citrate, pH 4. Free induction decays (FIDs) corresponding to 1000 scans were obtained with a 3.0 μs, 60 o pulse with a 1 s interpulse delay and a spectral width of 25000 Hz. A gated two-level proton decoupling was used to ensure sufficient decoupling with minimum sample heating. An exponential multiplication corresponding to 50 Hz of line broadening was applied to the FIDs prior to Fourier transformation. The sample temperature (+/−1° C.) was regulated using a Bruker B-VT1000 variable temperature unit. Chemical shifts were referenced to 85% phosphoric acid as an external standard.

[2] = SNALP with anti-luciferase siRNA, versus control SNALP containing mismatch siRNA

Structure (SMILES) | gene-silencing activity (luciferase; [2]) | luciferase expression relative to untreated control (luciferase) | knockdown in gene expression (luciferase; [2]) | phase transition temperature [1]
CC/C=C\C/C=C\C/C=C\CCCCCCCCOCC(CN(C)C)OCCCCCCCC/C=C\C/C=C\C/C=C\CC (stereo not shown) [DLenDMA, 1,2-Dilinolenyloxy-N,N-dimethylaminopropane] | slightly less efficient than those containing DLinDMA | 32% | – | –
CCCCC/C=C\C/C=C\CCCCCCCCOCC(CN(C)C)OCCCCCCCC/C=C\C/C=C\CCCCC (stereo not shown) [DLinDMA, 1,2-DiLinoleyloxy-N,N-dimethylaminopropane] | – | 21% | 80% | lowest phase transition temperature in the series
CCCCCCCCCCCCCCCCCC[N+](C)(C)CCCCCCCCCCCCCCCCCC [DODMA, dioctadecyldimethylammonium, reference compound] | – | 54% | – | –
CCCCCCCCCCCCCCCCCC[N+](C)(C)CCCCCCCCCCCCCCCCCC [DSDMA, Distearyldimethylammonium, reference compound] | no activity | – | – | –
